Holding throughout (format): in vivo
Assay [1] concerns Japanese bulrush (Scirpus juncoides Roxb.). As to the kind of experiment: Test Example 1: herbicidal effect by soil application to paddy field. Particulars: paddy field soil application; active ingredient 1,000 g per 1 hectare; wettable powder added dropwise to water surface the day after sowing; examined on the 21st day after application. The essentials: (§1)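 Plants were sown in flooded (3 cm) paddy soil and evaluated for herbicidal effect 21 days after soil application in a greenhouse.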

In assay [2] the test system is early watergrass (Echinochloa oryzicola Vasing). The description is as above. Particulars: paddy field soil application; active ingredient 1,000 g per 1 hectare; wettable powder added dropwise to water surface the day after sowing; examined on the 21st day after application. The essentials: as §1
For assay [3], the system named is heartshape false pickerelweed (Monochoria vaginalis (Burm.f.) C.Presl). The assay is described as above. The settings on record: paddy field soil application; active ingredient 1,000 g per 1 hectare; wettable powder added dropwise to water surface the day after sowing; examined on the 21st day after application. The essentials:
as §1

Assay [4] has as its system barnyardgrass (Echinochloa crus-galli (L.) P. Beauv. var. crus-galli). As to the kind of experiment: Test Example 2: herbicidal effect by soil application to upland field. Particulars: soil surface spray, upland field soil, 1,000 g active ingredient per hectare, 21st day after application. The essentials:
(§2)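 Greenhouse pot assay with field soil. Freshly sown seeds were covered with soil, then the surface was sprayed with diluted wettable powder: 1,000 g a.i./ha, 1,000 L/ha. Herbicidal effect scored at day 21 by standard criteria.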

Assay [5] deals with green foxtail (Setaria viridis (L.) P. Beauv.). Described as above. The settings on record: soil surface spray, upland field soil, 1,000 g active ingredient per hectare, 21st day after application. The essentials:
as §2

Assay [6] concerns slender amaranth (Amaranthus viridis L.). The description is as above. Particulars: soil surface spray, upland field soil, 1,000 g active ingredient per hectare, 21st day after application. The essentials: as §2
The test system of assay [7] is velvetleaf (Abutilon theophrasti medicus). The description is as above. The settings on record: soil surface spray, upland field soil, 1,000 g active ingredient per hectare, 21st day after application. The essentials:
as §2

For assay [8], the system named is barnyardgrass (Echinochloa crus-galli (L.) P. Beauv. var. crus-galli). As to the kind of experiment: Test Example 3: herbicidal effect by application to upland field (foliage treatment). The settings on record: 14th day after application; for herbicidal effect (index), Barnyardgrass: foliage treatment, plants grown two weeks, 1,000 g active ingredient per hectare; for herbicidal effect, Barnyardgrass: foliage treatment, 1,000 g active ingredient per 1 hectare, greenhouse. The essentials: (§3)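 Sow in field soil; grow 2 weeks in greenhouse; spray foliage from above with wettable-powder dilution (1,000 g AI/ha, 1,000 L/ha); return to greenhouse; score effect at day 14 against a standard.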

In assay [9] the test system is green foxtail (Setaria viridis (L.) P. Beauv.). The description is as above. Particulars: 14th day after application; for herbicidal effect (index), Green Foxtail: foliage treatment, plants grown two weeks, 1,000 g active ingredient per hectare; for herbicidal effect, Green Foxtail: foliage treatment, 1,000 g active ingredient per 1 hectare, greenhouse. The essentials:
as §3

Assay [10] concerns slender amaranth (Amaranthus viridis L.). The assay is described as above. Particulars: 14th day after application; for herbicidal effect (index), Slender Amaranth: foliage treatment, plants grown two weeks, 1,000 g active ingredient per hectare; for herbicidal effect, Slender Amaranth: foliage treatment, 1,000 g active ingredient per 1 hectare, greenhouse. The essentials:
as §3

In assay [11] the test system is velvetleaf (Abutilon theophrasti medicus). The assay is described as above. The settings on record: 14th day after application; for herbicidal effect (index), Velvetleaf: foliage treatment, plants grown two weeks, 1,000 g active ingredient per hectare; for herbicidal effect, Velvetleaf: foliage treatment, 1,000 g active ingredient per 1 hectare, greenhouse. The essentials:
as §3

Consider `O=C1CCCC(O)=C1C(=O)c1ccc(C(F)(F)F)n(CSC2CCCC2)c1=O` [I-59], for which the “herbicidal effect, Scirpus juncoides Roxb.” value in [1] is 5 (90% or more of herbicidal effect and crop phytotoxicity). For the same compound, in assay [2], the “herbicidal effect, Echinochloa oryzicola Vasing” value is 5 (90% or more of herbicidal effect and crop phytotoxicity). Further, in assay [3], the “herbicidal effect, Monochoria vaginalis (Burm. f.) C. Presl” value (“herbicidal effect, Monochoria vaginalis” below) was 5 (90% or more of herbicidal effect and crop phytotoxicity). Further, the “herbicidal effect (index), Barnyardgrass” value is 5 (90% or more of herbicidal effect and crop phytotoxicity) in assay [4]; 5 (90% or more of herbicidal effect and crop phytotoxicity) in assay [8]. Further, the “herbicidal effect (index), Green Foxtail” value in assay [5] was 4 (70 to less than 90% of herbicidal effect and crop phytotoxicity); in [9], 5 (90% or more of herbicidal effect and crop phytotoxicity). The “herbicidal effect (index), Slender Amaranth” value in assay [6] was 5 (90% or more of herbicidal effect and crop phytotoxicity); in assay [10] it was 5 (90% or more of herbicidal effect and crop phytotoxicity). Besides, the “herbicidal effect (index), Velvetleaf” value is 5 (90% or more of herbicidal effect and crop phytotoxicity) in [7]; 5 (90% or more of herbicidal effect and crop phytotoxicity) in assay [11].

With `O=C1CCCC(O)=C1C(=O)c1ccc(C(F)(F)F)n(CSCC2CC2)c1=O` [I-57], the “herbicidal effect, Scirpus juncoides Roxb.” value in assay [1] was 5 (90% or more of herbicidal effect and crop phytotoxicity). Besides, the “herbicidal effect, Echinochloa oryzicola Vasing” value in assay [2] is 5 (90% or more of herbicidal effect and crop phytotoxicity). Further, in [3], the “herbicidal effect, Monochoria vaginalis” value is 5 (90% or more of herbicidal effect and crop phytotoxicity). Also, the “herbicidal effect (index), Barnyardgrass” value in assay [4] is 5 (90% or more of herbicidal effect and crop phytotoxicity); in assay [8], 5 (90% or more of herbicidal effect and crop phytotoxicity). For the same compound, the “herbicidal effect (index), Green Foxtail” value in [5] is 5 (90% or more of herbicidal effect and crop phytotoxicity); in assay [9] it was 5 (90% or more of herbicidal effect and crop phytotoxicity). Also, the “herbicidal effect (index), Slender Amaranth” value was 5 (90% or more of herbicidal effect and crop phytotoxicity) in assay [6]; 5 (90% or more of herbicidal effect and crop phytotoxicity) in [10]. Besides, the “herbicidal effect (index), Velvetleaf” value in assay [7] is 5 (90% or more of herbicidal effect and crop phytotoxicity); in [11], 5 (90% or more of herbicidal effect and crop phytotoxicity).

Regarding `O=C1CCCC(O)=C1C(=O)c1ccc(C(F)(F)F)n(-c2cccc([N+](=O)[O-])c2)c1=O` [I-87], in [1], the “herbicidal effect, Scirpus juncoides Roxb.” value is 5 (90% or more of herbicidal effect and crop phytotoxicity). In addition, the “herbicidal effect, Echinochloa oryzicola Vasing” value in assay [2] was 5 (90% or more of herbicidal effect and crop phytotoxicity). Further, in [3], the “herbicidal effect, Monochoria vaginalis” value was 5 (90% or more of herbicidal effect and crop phytotoxicity). In addition, the “herbicidal effect (index), Barnyardgrass” value in assay [4] was 5 (90% or more of herbicidal effect and crop phytotoxicity); in assay [8] it was 5 (90% or more of herbicidal effect and crop phytotoxicity). Besides, the “herbicidal effect (index), Green Foxtail” value in assay [5] was 5 (90% or more of herbicidal effect and crop phytotoxicity); in assay [9], 5 (90% or more of herbicidal effect and crop phytotoxicity). In addition, the “herbicidal effect (index), Slender Amaranth” value is 5 (90% or more of herbicidal effect and crop phytotoxicity) in [6]; 5 (90% or more of herbicidal effect and crop phytotoxicity) in assay [10]. The “herbicidal effect (index), Velvetleaf” value in assay [7] is 5 (90% or more of herbicidal effect and crop phytotoxicity); in assay [11], 5 (90% or more of herbicidal effect and crop phytotoxicity).

Take `CCOCCn1c(C(F)(F)F)ccc(C(=O)C2=C(O)CCCC2=O)c1=O` [I-32]: the “herbicidal effect, Scirpus juncoides Roxb.” value in assay [1] was 5 (90% or more of herbicidal effect and crop phytotoxicity). For the same compound, the “herbicidal effect, Echinochloa oryzicola Vasing” value in assay [2] was 5 (90% or more of herbicidal effect and crop phytotoxicity). Besides, the “herbicidal effect, Monochoria vaginalis” value in assay [3] was 5 (90% or more of herbicidal effect and crop phytotoxicity). For the same compound, the “herbicidal effect (index), Barnyardgrass” value in assay [4] is 5 (90% or more of herbicidal effect and crop phytotoxicity); in assay [8], 5 (90% or more of herbicidal effect and crop phytotoxicity). Further, the “herbicidal effect (index), Green Foxtail” value in assay [5] is 5 (90% or more of herbicidal effect and crop phytotoxicity); in assay [9], 5 (90% or more of herbicidal effect and crop phytotoxicity). Also, the “herbicidal effect (index), Slender Amaranth” value was 5 (90% or more of herbicidal effect and crop phytotoxicity) in [6]; 5 (90% or more of herbicidal effect and crop phytotoxicity) in assay [10]. Also, the “herbicidal effect (index), Velvetleaf” value in assay [7] is 5 (90% or more of herbicidal effect and crop phytotoxicity); in assay [11], 5 (90% or more of herbicidal effect and crop phytotoxicity).

As for `Cn1ncc(C(=O)c2ccc(C(F)(F)F)n(CCC=C(Cl)Cl)c2=O)c1O` [IV-30], in assay [1], the “herbicidal effect, Scirpus juncoides Roxb.” value is 5 (90% or more of herbicidal effect and crop phytotoxicity). The “herbicidal effect, Echinochloa oryzicola Vasing” value in assay [2] was 5 (90% or more of herbicidal effect and crop phytotoxicity). Besides, in [3], the “herbicidal effect, Monochoria vaginalis” value is 5 (90% or more of herbicidal effect and crop phytotoxicity). In addition, the “herbicidal effect (index), Barnyardgrass” value in [4] is 5 (90% or more of herbicidal effect and crop phytotoxicity). Also, in assay [5], the “herbicidal effect (index), Green Foxtail” value was 3 (50 to less than 70% of herbicidal effect and crop phytotoxicity). For the same compound, the “herbicidal effect (index), Slender Amaranth” value in assay [6] is 5 (90% or more of herbicidal effect and crop phytotoxicity). Also, in assay [7], the “herbicidal effect (index), Velvetleaf” value is 5 (90% or more of herbicidal effect and crop phytotoxicity). For the same compound, the “herbicidal effect, Barnyardgrass” value in [8] is 5 (90% or more of herbicidal effect and crop phytotoxicity). In assay [9], the “herbicidal effect, Green Foxtail” value is 5 (90% or more of herbicidal effect and crop phytotoxicity). In addition, the “herbicidal effect, Slender Amaranth” value in assay [10] is 5 (90% or more of herbicidal effect and crop phytotoxicity). Further, in assay [11], the “herbicidal effect, Velvetleaf” value is 5 (90% or more of herbicidal effect and crop phytotoxicity).

For the compound `O=C1CCCC(O)=C1C(=O)c1ccc(C(F)(F)F)n(CC2CCOC2)c1=O` (centres unmarked) [I-154], in assay [1], the “herbicidal effect, Scirpus juncoides Roxb.” value is 5 (90% or more of herbicidal effect and crop phytotoxicity). The “herbicidal effect, Echinochloa oryzicola Vasing” value in assay [2] was 5 (90% or more of herbicidal effect and crop phytotoxicity). Moreover, the “herbicidal effect, Monochoria vaginalis” value in assay [3] is 5 (90% or more of herbicidal effect and crop phytotoxicity). The “herbicidal effect (index), Barnyardgrass” value in [4] is 4 (70 to less than 90% of herbicidal effect and crop phytotoxicity). Also, the “herbicidal effect (index), Green Foxtail” value in assay [5] is 3 (50 to less than 70% of herbicidal effect and crop phytotoxicity). The “herbicidal effect (index), Slender Amaranth” value in [6] was 5 (90% or more of herbicidal effect and crop phytotoxicity). In assay [7], the “herbicidal effect (index), Velvetleaf” value was 5 (90% or more of herbicidal effect and crop phytotoxicity). In assay [8], the “herbicidal effect, Barnyardgrass” value is 4 (70 to less than 90% of herbicidal effect and crop phytotoxicity). Moreover, the “herbicidal effect, Green Foxtail” value in assay [9] is 5 (90% or more of herbicidal effect and crop phytotoxicity). The “herbicidal effect, Slender Amaranth” value in [10] was 5 (90% or more of herbicidal effect and crop phytotoxicity). Also, the “herbicidal effect, Velvetleaf” value in assay [11] was 5 (90% or more of herbicidal effect and crop phytotoxicity).

As to `O=C1CCCC(O)=C1C(=O)c1ccc(C(F)(F)F)n(-c2ccccc2Cl)c1=O` [I-73], the “herbicidal effect, Scirpus juncoides Roxb.” value in assay [1] was 5 (90% or more of herbicidal effect and crop phytotoxicity). Besides, the “herbicidal effect, Echinochloa oryzicola Vasing” value in [2] is 5 (90% or more of herbicidal effect and crop phytotoxicity). Moreover, in [3], the “herbicidal effect, Monochoria vaginalis” value is 5 (90% or more of herbicidal effect and crop phytotoxicity). The “herbicidal effect (index), Barnyardgrass” value in assay [4] was 5 (90% or more of herbicidal effect and crop phytotoxicity); in assay [8] it was 5 (90% or more of herbicidal effect and crop phytotoxicity). In addition, the “herbicidal effect (index), Green Foxtail” value in assay [5] is 5 (90% or more of herbicidal effect and crop phytotoxicity); in assay [9], 4 (70 to less than 90% of herbicidal effect and crop phytotoxicity). Moreover, the “herbicidal effect (index), Slender Amaranth” value in [6] was 5 (90% or more of herbicidal effect and crop phytotoxicity); in assay [10] it was 5 (90% or more of herbicidal effect and crop phytotoxicity). Also, the “herbicidal effect (index), Velvetleaf” value in assay [7] is 5 (90% or more of herbicidal effect and crop phytotoxicity); in assay [11], 5 (90% or more of herbicidal effect and crop phytotoxicity).
